# Values of other authors, collected in patent US20230009337A1, “Liberty Vitamins and Drinks” (priority 2021, published 2023).
# How the values were obtained:
# TWIK2 potassium channels = target: T1, TWIK2 potassium channels (Homo sapiens, UniProt Q9Y257); settings: macrophage white blood cell; discovered by Dr. Jalees Rehman and Professor Asrar Malik, University of Illinois in Chicago
# T1 construct: host or cells: macrophage white blood cell (as described in the diagram)
# T1 sequence (Q9Y257 1-313): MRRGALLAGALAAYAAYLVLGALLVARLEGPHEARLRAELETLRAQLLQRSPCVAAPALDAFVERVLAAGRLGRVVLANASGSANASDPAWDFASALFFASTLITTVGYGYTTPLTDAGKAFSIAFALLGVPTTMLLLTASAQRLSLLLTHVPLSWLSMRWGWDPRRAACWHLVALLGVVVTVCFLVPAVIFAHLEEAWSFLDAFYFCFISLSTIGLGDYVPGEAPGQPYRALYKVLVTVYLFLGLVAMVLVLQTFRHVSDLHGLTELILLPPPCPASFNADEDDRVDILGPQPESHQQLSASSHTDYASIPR
# mice = settings: acetone/olive oil placed on the mice for 4 weeks
smiles,measurement,setting,value
C=C[C@H]1C[N@@]2CC[C@H]1C[C@H]2[C@H](O)c1ccnc2ccc(OC)cc12 [Quinine],inhibition of TWIK2 channels,TWIK2 potassium channels,can inhibit
same,loss of skin and flesh (skin inflammation),mice,did not have a loss of skin and flesh
